Patent US8192962B2, “Processes for detecting toxic substances” (Daikin Industries, Ltd., priority 2001, dated 2012)

Tested on: Metabolism protein genes
Test: DNA chip mRNA expression in yeast, metabolism protein genes (Table 7)
Format: cell-based, Saccharomyces cerevisiae S288C
How it was run: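 Value is the scanned fluorescence intensity ratio of exposed versus chemical-free cells. Log-phase S288C yeast in YPD at 25° C. received one toxic substance for two hours, dosed to slow growth without killing; Cy3/Cy5-labeled cDNA from oligo-dT-purified mRNA was hybridized to a whole-genome chip at 65° C.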

Cl[C@H]1[C@H](Cl)[C@@H](Cl)[C@@H](Cl)[C@H](Cl)[C@H]1Cl [(7), γ-hexachlorocyclohexane]
1.4: The level of expressed mRNA in the presence of chemical substance/The level of expressed mRNA in the absence of chemical substance (yeast gene YDR019C) | level of expressed mRNA in the presence/in the absence of chemical substance (yeast gene YDR284C) | The level of expressed mRNA in the presence of chemical substance/The level of expressed mRNA in the absence of chemical substance (yeast gene YFL056C) | level of expressed mRNA in the presence/in the absence of chemical substance (yeast gene YGL115W) | The level of expressed mRNA in the presence of chemical substance/The level of expressed mRNA in the absence of chemical substance (yeast gene YGR037C) | The level of expressed mRNA in the presence of chemical substance/The level of expressed mRNA in the absence of chemical substance (yeast gene YGR256W) | level of expressed mRNA in the presence/in the absence of chemical substance (yeast gene YGR288W) | The level of expressed mRNA in the presence of chemical substance/The level of expressed mRNA in the absence of chemical substance (yeast gene YHR176W)
0.3: level of expressed mRNA in the presence/in the absence of chemical substance (yeast gene YCR034W)
1.5: level of expressed mRNA in the presence/in the absence of chemical substance (yeast gene YDR050C) | level of expressed mRNA in the presence/in the absence of chemical substance (yeast gene YJL167W) | level of expressed mRNA in the presence/in the absence of chemical substance (yeast gene YJL216C)
1.0: The level of expressed mRNA in the presence of chemical substance/The level of expressed mRNA in the absence of chemical substance (yeast gene YBR222C) | The level of expressed mRNA in the presence of chemical substance/The level of expressed mRNA in the absence of chemical substance (yeast gene YER069W) | The level of expressed mRNA in the presence of chemical substance/The level of expressed mRNA in the absence of chemical substance (yeast gene YGL209W) | The level of expressed mRNA in the presence of chemical substance/The level of expressed mRNA in the absence of chemical substance (yeast gene YIR036C) | The level of expressed mRNA in the presence of chemical substance/The level of expressed mRNA in the absence of chemical substance (yeast gene YJL172W)
2.3: The level of expressed mRNA in the presence of chemical substance/The level of expressed mRNA in the absence of chemical substance (yeast gene YJL031C)
0.4: The level of expressed mRNA in the presence of chemical substance/The level of expressed mRNA in the absence of chemical substance (yeast gene YBR029C) | The level of expressed mRNA in the presence of chemical substance/The level of expressed mRNA in the absence of chemical substance (yeast gene YHR137W)
2.0: The level of expressed mRNA in the presence of chemical substance/The level of expressed mRNA in the absence of chemical substance (yeast gene YFR047C)
2.1: The level of expressed mRNA in the presence of chemical substance/The level of expressed mRNA in the absence of chemical substance (yeast gene YBR256C) | The level of expressed mRNA in the presence of chemical substance/The level of expressed mRNA in the absence of chemical substance (yeast gene YJR148W)
1.3: The level of expressed mRNA in the presence of chemical substance/The level of expressed mRNA in the absence of chemical substance (yeast gene YCL009C) | level of expressed mRNA in the presence/in the absence of chemical substance (yeast gene YCR010C) | The level of expressed mRNA in the presence of chemical substance/The level of expressed mRNA in the absence of chemical substance (yeast gene YIL154C)
0.5: The level of expressed mRNA in the presence of chemical substance/The level of expressed mRNA in the absence of chemical substance (yeast gene YDR380W) | The level of expressed mRNA in the presence of chemical substance/The level of expressed mRNA in the absence of chemical substance (yeast gene YDR497C) | level of expressed mRNA in the presence/in the absence of chemical substance (yeast gene YER081W) | level of expressed mRNA in the presence/in the absence of chemical substance (yeast gene YJR143C)
2.8: The level of expressed mRNA in the presence of chemical substance/The level of expressed mRNA in the absence of chemical substance (yeast gene YER053C)
1.7: The level of expressed mRNA in the presence of chemical substance/The level of expressed mRNA in the absence of chemical substance (yeast gene YBR183W) | The level of expressed mRNA in the presence of chemical substance/The level of expressed mRNA in the absence of chemical substance (yeast gene YJR155W)
0.8: level of expressed mRNA in the presence/in the absence of chemical substance (yeast gene YDR408C) | level of expressed mRNA in the presence/in the absence of chemical substance (yeast gene YDR483W) | level of expressed mRNA in the presence/in the absence of chemical substance (yeast gene YFL011W) | level of expressed mRNA in the presence/in the absence of chemical substance (yeast gene YGL205W) | level of expressed mRNA in the presence/in the absence of chemical substance (yeast gene YGR204W) | level of expressed mRNA in the presence/in the absence of chemical substance (yeast gene YHR025W) | level of expressed mRNA in the presence/in the absence of chemical substance (yeast gene YIL006W) | The level of expressed mRNA in the presence of chemical substance/The level of expressed mRNA in the absence of chemical substance (yeast gene YIR034C) | The level of expressed mRNA in the presence of chemical substance/The level of expressed mRNA in the absence of chemical substance (yeast gene YJR137C)
1.8: The level of expressed mRNA in the presence of chemical substance/The level of expressed mRNA in the absence of chemical substance (yeast gene YFL057C) | The level of expressed mRNA in the presence of chemical substance/The level of expressed mRNA in the absence of chemical substance (yeast gene YJL099W)
0.6: The level of expressed mRNA in the presence of chemical substance/The level of expressed mRNA in the absence of chemical substance (yeast gene YAL012W) | level of expressed mRNA in the presence/in the absence of chemical substance (yeast gene YDR178W) | level of expressed mRNA in the presence/in the absence of chemical substance (yeast gene YDR400W) | The level of expressed mRNA in the presence of chemical substance/The level of expressed mRNA in the absence of chemical substance (yeast gene YFL030W) | The level of expressed mRNA in the presence of chemical substance/The level of expressed mRNA in the absence of chemical substance (yeast gene YGR055W)
1.9: level of expressed mRNA in the presence/in the absence of chemical substance (yeast gene YHR210C)
1.2: The level of expressed mRNA in the presence of chemical substance/The level of expressed mRNA in the absence of chemical substance (yeast gene YCR098C) | level of expressed mRNA in the presence/in the absence of chemical substance (yeast gene YDR073W) | level of expressed mRNA in the presence/in the absence of chemical substance (yeast gene YDR277C) | level of expressed mRNA in the presence/in the absence of chemical substance (yeast gene YER015W) | The level of expressed mRNA in the presence of chemical substance/The level of expressed mRNA in the absence of chemical substance (yeast gene YIL167W) | The level of expressed mRNA in the presence of chemical substance/The level of expressed mRNA in the absence of chemical substance (yeast gene YJL068C)
5.5: The level of expressed mRNA in the presence of chemical substance/The level of expressed mRNA in the absence of chemical substance (yeast gene YFL014W)
0.9: The level of expressed mRNA in the presence of chemical substance/The level of expressed mRNA in the absence of chemical substance (yeast gene YAL038W) | The level of expressed mRNA in the presence of chemical substance/The level of expressed mRNA in the absence of chemical substance (yeast gene YCR048W) | level of expressed mRNA in the presence/in the absence of chemical substance (yeast gene YDR123C) | The level of expressed mRNA in the presence of chemical substance/The level of expressed mRNA in the absence of chemical substance (yeast gene YDR502C) | The level of expressed mRNA in the presence of chemical substance/The level of expressed mRNA in the absence of chemical substance (yeast gene YER096W) | level of expressed mRNA in the presence/in the absence of chemical substance (yeast gene YER120W) | The level of expressed mRNA in the presence of chemical substance/The level of expressed mRNA in the absence of chemical substance (yeast gene YFL031W) | level of expressed mRNA in the presence/in the absence of chemical substance (yeast gene YGL012W) | level of expressed mRNA in the presence/in the absence of chemical substance (yeast gene YGR096W) | level of expressed mRNA in the presence/in the absence of chemical substance (yeast gene YHR123W) | The level of expressed mRNA in the presence of chemical substance/The level of expressed mRNA in the absence of chemical substance (yeast gene YJL219W)
13.4: The level of expressed mRNA in the presence of chemical substance/The level of expressed mRNA in the absence of chemical substance (yeast gene YCL064C)
1.6: The level of expressed mRNA in the presence of chemical substance/The level of expressed mRNA in the absence of chemical substance (yeast gene YER026C) | The level of expressed mRNA in the presence of chemical substance/The level of expressed mRNA in the absence of chemical substance (yeast gene YER178W) | The level of expressed mRNA in the presence of chemical substance/The level of expressed mRNA in the absence of chemical substance (yeast gene YGL248W) | The level of expressed mRNA in the presence of chemical substance/The level of expressed mRNA in the absence of chemical substance (yeast gene YHR111W) | The level of expressed mRNA in the presence of chemical substance/The level of expressed mRNA in the absence of chemical substance (yeast gene YHR174W) | The level of expressed mRNA in the presence of chemical substance/The level of expressed mRNA in the absence of chemical substance (yeast gene YIL045W) | The level of expressed mRNA in the presence of chemical substance/The level of expressed mRNA in the absence of chemical substance (yeast gene YIL107C)
3.9: The level of expressed mRNA in the presence of chemical substance/The level of expressed mRNA in the absence of chemical substance (yeast gene YDR516C)
1.1: level of expressed mRNA in the presence/in the absence of chemical substance (yeast gene YBR003W) | level of expressed mRNA in the presence/in the absence of chemical substance (yeast gene YBR011C) | level of expressed mRNA in the presence/in the absence of chemical substance (yeast gene YDR345C) | The level of expressed mRNA in the presence of chemical substance/The level of expressed mRNA in the absence of chemical substance (yeast gene YGR282C)
2.2: The level of expressed mRNA in the presence of chemical substance/The level of expressed mRNA in the absence of chemical substance (yeast gene YGR194C) | The level of expressed mRNA in the presence of chemical substance/The level of expressed mRNA in the absence of chemical substance (yeast gene YIL155C)
0.7: level of expressed mRNA in the presence/in the absence of chemical substance (yeast gene YBR020W) | The level of expressed mRNA in the presence of chemical substance/The level of expressed mRNA in the absence of chemical substance (yeast gene YBR023C) | level of expressed mRNA in the presence/in the absence of chemical substance (yeast gene YEL063C) | The level of expressed mRNA in the presence of chemical substance/The level of expressed mRNA in the absence of chemical substance (yeast gene YGL022W) | level of expressed mRNA in the presence/in the absence of chemical substance (yeast gene YGR191W) | level of expressed mRNA in the presence/in the absence of chemical substance (yeast gene YJL121C) | level of expressed mRNA in the presence/in the absence of chemical substance (yeast gene YJR077C)
